Source: PubChem BioAssay (NCI)
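How tested: cells in 96-well plates exposed to compound for 48 hours at five concentrations. GI50 = concentration required for 50% inhibition of growth. At the TGI there is no net growth.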

How the values were obtained:
Test in all cases: NCI tumour cell line growth inhibition, 48 h
K-562 leukemia = tested on: K-562 leukemia
PC-3 prostate = tested on: PC-3 prostate
HCT-15 colon = tested on: HCT-15 colon
MALME-3M melanoma = tested on: MALME-3M melanoma
HT29 colon = tested on: HT29 colon
NCI/ADR-RES ovarian = tested on: NCI/ADR-RES ovarian
HCT-116 colon = tested on: HCT-116 colon
M14 melanoma = tested on: M14 melanoma
SNB-19 CNS = tested on: SNB-19 CNS
OVCAR-8 ovarian = tested on: OVCAR-8 ovarian
U251 CNS = tested on: U251 CNS
SK-MEL-2 melanoma = tested on: SK-MEL-2 melanoma
HL-60(TB) leukemia = tested on: HL-60(TB) leukemia
ACHN renal = tested on: ACHN renal
EKVX NSCLC = tested on: EKVX NSCLC
SK-MEL-5 melanoma = tested on: SK-MEL-5 melanoma
A549 NSCLC = tested on: A549 NSCLC
MCF7 breast = tested on: MCF7 breast
OVCAR-3 ovarian = tested on: OVCAR-3 ovarian
DU-145 prostate = tested on: DU-145 prostate
SF-268 CNS = tested on: SF-268 CNS
SF-539 CNS = tested on: SF-539 CNS
OVCAR-4 ovarian = tested on: OVCAR-4 ovarian
IGROV1 ovarian = tested on: IGROV1 ovarian
SN12C renal = tested on: SN12C renal
OVCAR-5 ovarian = tested on: OVCAR-5 ovarian
COLO 205 colon = tested on: COLO 205 colon
TK-10 renal = tested on: TK-10 renal
UO-31 renal = tested on: UO-31 renal
SW-620 colon = tested on: SW-620 colon
RXF 393 renal = tested on: RXF 393 renal
UACC-62 melanoma = tested on: UACC-62 melanoma
SK-OV-3 ovarian = tested on: SK-OV-3 ovarian
LOX IMVI melanoma = tested on: LOX IMVI melanoma
NCI-H522 lung = tested on: NCI-H522 lung
MOLT-4 leukemia = tested on: MOLT-4 leukemia
HS 578T breast = tested on: HS 578T breast
UACC-257 melanoma = tested on: UACC-257 melanoma
SF-295 CNS = tested on: SF-295 CNS
SNB-75 CNS = tested on: SNB-75 CNS
NCI-H460 lung = tested on: NCI-H460 lung
SR leukemia = tested on: SR leukemia
CAKI-1 renal = tested on: CAKI-1 renal
BT-549 breast = tested on: BT-549 breast
T-47D breast = tested on: T-47D breast
MDA-MB-231 breast = tested on: MDA-MB-231 breast
HOP-92 NSCLC = tested on: HOP-92 NSCLC
NCI-H226 lung = tested on: NCI-H226 lung
HOP-62 NSCLC = tested on: HOP-62 NSCLC
NCI-H23 lung = tested on: NCI-H23 lung
HCC-2998 colon = tested on: HCC-2998 colon
RPMI-8226 leukemia = tested on: RPMI-8226 leukemia
KM12 colon = tested on: KM12 colon
SK-MEL-28 melanoma = tested on: SK-MEL-28 melanoma
786-0 renal = tested on: 786-0 renal
CCRF-CEM leukemia = tested on: CCRF-CEM leukemia
MDA-MB-435 = tested on: MDA-MB-435

## C/C(Cc1ccc(Cl)cc1)=C(/c1ccc(Cl)cc1)c1ccc(OCCN(C)C)cc1
K-562 leukemia
  GI50: 0.981 µM
  TGI: 5.83 µM
PC-3 prostate
  GI50: 4.34 µM
  TGI: 9.21 µM
HCT-15 colon
  GI50: 1.19 µM
  TGI: 4.27 µM
MALME-3M melanoma
  GI50: 3.68 µM
  TGI: 8.63 µM
HT29 colon
  GI50: 1.36 µM
  TGI: 5.85 µM
NCI/ADR-RES ovarian
  GI50: 4.8 µM
  TGI: 9.88 µM
HCT-116 colon
  GI50: 3.03 µM
  TGI: 8.74 µM
M14 melanoma
  GI50: 5.19 µM
  TGI: 10.8 µM
SNB-19 CNS
  GI50: 5.04 µM
  TGI: 9.62 µM
OVCAR-8 ovarian
  GI50: 5.75 µM
  TGI: 13.7 µM
U251 CNS
  GI50: 3.72 µM
  TGI: 8.6 µM
SK-MEL-2 melanoma
  GI50: 5.69 µM
  TGI: 11.4 µM
HL-60(TB) leukemia
  GI50: 3.89 µM
  TGI: 10 µM
ACHN renal
  GI50: 5.12 µM
  TGI: 9.56 µM
EKVX NSCLC
  GI50: 4.75 µM
  TGI: 9.22 µM
SK-MEL-5 melanoma
  GI50: 4.4 µM
  TGI: 8.78 µM
A549 NSCLC
  GI50: 4.52 µM
  TGI: 10.3 µM
MCF7 breast
  GI50: 1.7 µM
  TGI: 6.31 µM
OVCAR-3 ovarian
  GI50: 4.53 µM
  TGI: 9.2 µM
DU-145 prostate
  GI50: 4.74 µM
  TGI: 9.44 µM
SF-268 CNS
  GI50: 5.01 µM
  TGI: 10.1 µM
SF-539 CNS
  GI50: 4.77 µM
  TGI: 9.22 µM
OVCAR-4 ovarian
  GI50: 3.52 µM
  TGI: 7.57 µM
IGROV1 ovarian
  GI50: 3.73 µM
  TGI: 8.56 µM
SN12C renal
  GI50: 4.18 µM
  TGI: 8.59 µM
OVCAR-5 ovarian
  GI50: 4.79 µM
  TGI: 9.3 µM
COLO 205 colon
  GI50: 1 µM
  TGI: 4.53 µM
TK-10 renal
  GI50: 5.1 µM
  TGI: 10.8 µM
UO-31 renal
  GI50: 4.27 µM
  TGI: 8.65 µM
SW-620 colon
  GI50: 1.67 µM
  TGI: 6.1 µM
RXF 393 renal
  GI50: 3.45 µM
  TGI: 7.54 µM
UACC-62 melanoma
  GI50: 5.19 µM
  TGI: 9.75 µM
SK-OV-3 ovarian
  GI50: 5.42 µM
  TGI: 10.5 µM
LOX IMVI melanoma
  GI50: 3.02 µM
  TGI: 7.18 µM
NCI-H522 lung
  GI50: 5.31 µM
  TGI: 11.4 µM
MOLT-4 leukemia
  GI50: 4.01 µM
  TGI: 10 µM
HS 578T breast
  GI50: 4.72 µM
  TGI: 11 µM
UACC-257 melanoma
  GI50: 4.24 µM
  TGI: 9.38 µM
SF-295 CNS
  GI50: 5.5 µM
  TGI: 10.3 µM
SNB-75 CNS
  GI50: 3.47 µM
  TGI: 7.93 µM
NCI-H460 lung
  GI50: 1.22 µM
  TGI: 4.49 µM
SR leukemia
  GI50: 0.991 µM
  TGI: 3.81 µM
CAKI-1 renal
  GI50: 4.63 µM
  TGI: 8.98 µM
BT-549 breast
  GI50: 4.95 µM
  TGI: 10 µM
T-47D breast
  GI50: 3.83 µM
  TGI: 9.92 µM
MDA-MB-231 breast
  GI50: 4.27 µM
  TGI: 8.71 µM
HOP-92 NSCLC
  GI50: 1.62 µM
  TGI: 6.48 µM
NCI-H226 lung
  GI50: 4.99 µM
  TGI: 10.5 µM
HOP-62 NSCLC
  GI50: 6.07 µM
  TGI: 11.8 µM
NCI-H23 lung
  GI50: 4.54 µM
  TGI: 9.14 µM
HCC-2998 colon
  GI50: 2.03 µM
  TGI: 6.7 µM
RPMI-8226 leukemia
  GI50: 1.07 µM
  TGI: 3.81 µM
KM12 colon
  GI50: 4.16 µM
  TGI: 8.95 µM
SK-MEL-28 melanoma
  GI50: 4.85 µM
  TGI: 9.29 µM
786-0 renal
  GI50: 4.55 µM
  TGI: 9.78 µM
CCRF-CEM leukemia
  GI50: 4.17 µM
  TGI: 12.9 µM
MDA-MB-435
  GI50: 4.52 µM
  TGI: 8.81 µM
